Experimental data as given in US9982016B2, “NPR-B agonists” (priority 2009, dated 2018).
Like-named read-outs stand apart in the source and are kept apart here. Numbered stars: 1 amine (or outer) side, 2 acyl side, 3 side chain; on linkers, the order of the positions; unused ones are H or OH. Square brackets hold non-standard residues; d marks the D form. Peptide text beside a SMILES is read from it. * marks the point of attachment. Pro(4R-NH2) = N[C@H]1CN[C@H](C(=O)O)C1; X2 = O=C([C@H]1CCCN([*:1])C1)[*:2]; NMeR = CN[C@@H](CCCNC(=N)N)C(=O)O; X1 = CCCCCCCCN1CCC[C@H](C(=O)*)C1; dDap(Me2) = CN(C)C[C@@H](N)C(=O)O; Hyp = O=C(O)[C@@H]1C[C@@H](O)CN1; NMeF = CN[C@@H](Cc1ccccc1)C(=O)O; NMeL = CN[C@@H](CC(C)C)C(=O)O; Octanoyl = CCCCCCCC(=O)*

Assays:
NPR-B = molecular target: T1, NPR-B (Homo sapiens, UniProt P20594); assay: NPR-B induced production of cyclic GMP in human glaucoma trabecular meshwork cells (GTM-3); type: cell-based
T1 construct: endogenously NPR-B expressing GTM-3 cells; endogenous in cells; host or cells: GTM-3 (human glaucoma trabecular meshwork cells)
T1 sequence (P20594 23-1047): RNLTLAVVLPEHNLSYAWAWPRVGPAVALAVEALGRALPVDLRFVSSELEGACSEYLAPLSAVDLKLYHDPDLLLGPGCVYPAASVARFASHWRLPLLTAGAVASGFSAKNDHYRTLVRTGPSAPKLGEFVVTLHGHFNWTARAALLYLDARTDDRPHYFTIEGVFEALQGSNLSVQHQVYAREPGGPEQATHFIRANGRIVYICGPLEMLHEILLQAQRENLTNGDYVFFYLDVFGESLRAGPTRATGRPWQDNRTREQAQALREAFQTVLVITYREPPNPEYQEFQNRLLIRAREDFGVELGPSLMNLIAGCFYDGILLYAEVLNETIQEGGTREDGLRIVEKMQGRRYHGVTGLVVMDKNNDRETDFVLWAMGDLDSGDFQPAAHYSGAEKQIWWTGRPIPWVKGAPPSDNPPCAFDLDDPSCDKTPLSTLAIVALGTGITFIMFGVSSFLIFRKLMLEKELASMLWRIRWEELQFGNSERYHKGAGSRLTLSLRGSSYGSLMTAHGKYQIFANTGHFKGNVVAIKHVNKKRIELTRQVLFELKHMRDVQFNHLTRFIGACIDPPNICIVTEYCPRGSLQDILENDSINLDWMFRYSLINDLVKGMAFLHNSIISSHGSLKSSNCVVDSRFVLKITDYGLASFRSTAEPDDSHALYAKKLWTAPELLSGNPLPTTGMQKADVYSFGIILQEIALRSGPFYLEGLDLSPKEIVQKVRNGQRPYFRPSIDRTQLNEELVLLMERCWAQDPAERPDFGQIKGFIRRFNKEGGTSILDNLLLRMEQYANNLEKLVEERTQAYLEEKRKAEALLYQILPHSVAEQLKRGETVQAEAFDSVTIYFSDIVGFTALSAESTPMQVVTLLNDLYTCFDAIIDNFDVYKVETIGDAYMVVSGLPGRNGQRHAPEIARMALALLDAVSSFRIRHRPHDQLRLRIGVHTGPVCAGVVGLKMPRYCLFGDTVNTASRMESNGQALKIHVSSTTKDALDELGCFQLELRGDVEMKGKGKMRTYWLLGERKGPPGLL

[1] = tested on: human renal carcinoma cells; details: 100 μM; cited from earlier work
chondrocytes = details: low doses 10 to 100 pM, at the highest dose; cited from earlier work
[2] = tested on: human colon adenocarcinoma cells; details: 1 mM, within 24 h; cited from earlier work
[3] = NPR-B activation in GTM-3 cells, group set by EC50 and Emax (CNP = 100%), read-out: Activity (group)

SMILES | EC50 (NPR-B; [3]) | further results
CCCCCCCC(=O)N1CCC[C@H](C(=O)N[C@@H](Cc2ccccc2)C(=O)N[C@H](CN(C)C)C(=O)N[C@@H](CC(C)C)C(=O)N2C[C@H](O)C[C@H]2C(=O)N(C)[C@@H](CC(C)C)C(=O)N[C@@H](CC(=O)O)C(=O)N(C)[C@@H](CCCNC(=N)N)C(=O)N[C@H](C(N)=O)[C@@H](C)CC)C1 [JAL-1576, Occ-Sni-Phe-dap(Me2)-Leu-Hyp-Nml-Asp-Nmr-Ile-NH2] (Octanoyl-[X2]F[dDap(Me2)]L[Hyp][NMeL]D[NMeR]I-NH2) | < 1000 nM | 
CC[C@H](C)[C@@H]1NC(=O)[C@H](CCCNC(=N)N)NC(=O)[C@H](CC(=O)O)NC(=O)[C@H](CC(C)C)NC(=O)[C@H](CCCCN)NC(=O)[C@H](CC(C)C)NC(=O)CNC(=O)[C@H](Cc2ccccc2)NC(=O)[C@@H](NC(=O)CNC(=O)[C@H](CCCCN)NC(=O)[C@H](CO)NC(=O)[C@H](CC(C)C)NC(=O)CN)CSSC[C@@H](C(=O)O)NC(=O)CNC(=O)[C@H](CC(C)C)NC(=O)CNC(=O)[C@H](CO)NC(=O)[C@H](CCSC)NC(=O)[C@H](CO)NC(=O)CNC1=O [CNP, C-type natriuretic peptide] |  | decrease in cell number [1]: 10%; increase in cellularity (chondrocyte proliferation) (chondrocytes): up to 43%
CCCCCCCC(=O)N[C@H](C)C(=O)N[C@@H](Cc1ccccc1)C(=O)N[C@H](CC(C)C)C(=O)N[C@@H](CC(C)C)C(=O)N1C[C@H](O)C[C@H]1C(=O)N(C)[C@@H](CC(C)C)C(=O)N[C@@H](C(=O)N[C@@H](CCCNC(=N)N)C(=O)N[C@H](C(N)=O)[C@@H](C)CC)c1cccs1 [JAL-1558, Occ-ala-Phe-leu-Leu-Hyp-Nml-(BB727)-Arg-Ile-NH2] (HELM PEPTIDE1{[CCCCCCCC(=O)[*:2]].[dA].F.[dL].L.[Hyp].[meL].[O=C([C@H](N[*:1])c1cccs1)[*:2]].R.I.[am]}$$$$V2.0) | < 1000 nM | 
CCCCCCCCN1CCC[C@H](C(=O)N[C@@H](Cc2ccccc2)C(=O)N[C@H](CN(C)C)C(=O)N[C@@H](CC(C)C)C(=O)N2C[C@H](N)C[C@H]2C(=O)N(C)[C@@H](CC(C)C)C(=O)N[C@@H](CC(=O)O)C(=O)N[C@@H](CCCNC(=N)N)C(=O)N[C@H](C(N)=O)[C@@H](C)CC)C1 [JAL-1369, Oct-Sni-Phe-dap(Me2)-Leu-Tap-Nml-Asp-Arg-Ile-NH2] (X1-F[dDap(Me2)]L[Pro(4R-NH2)][NMeL]DRI-NH2) | < 1000 nM | 
CC[C@H](C)[C@@H]1NC(=O)[C@H](CCCNC(=N)N)NC(=O)[C@H](CC(=O)O)NC(=O)[C@H](CCSC)NC(=O)[C@H](CCCNC(=N)N)NC(=O)CNC(=O)CNC(=O)[C@H](Cc2ccccc2)NC(=O)[C@H](Cc2c[nH]cn2)NC(=O)[C@@H](NC(=O)[C@@H](N)CCSC)CSSC[C@@H](C(=O)N[C@@H](Cc2ccc(O)cc2)C(=O)N[C@@H](CCCNC(=N)N)C(N)=O)NC(=O)[C@H](CO)NC1=O [mini-ANP, reference compound] (HELM PEPTIDE1{M.C.H.F.G.G.R.M.D.R.I.S.C.Y.R.[am]}$PEPTIDE1,PEPTIDE1,2:R3-13:R3$$$V2.0) |  | EC50 (NPR-B; GTM-3 cells, 4-Parameter Logistic Equation, highest concentration 45 μM, FIG. 2, read-out: EC50, cyclic GMP production in GTM-3 cells): > 45000 nM
CCCCCCCCN1CCC[C@H](C(=O)N[C@@H](Cc2ccccc2)C(=O)N[C@H](CN(C)C)C(=O)N[C@@H](CC(C)C)C(=O)N2C[C@H](O)C[C@H]2C(=O)N(C)[C@@H](CC(C)C)C(=O)N[C@@H](CC(=O)O)C(=O)N[C@@H](CCCNC(=N)N)C(=O)N[C@H](C(N)=O)[C@@H](C)CC)C1 [JAL-1429, Oct-Sni-Phe-dap(Me2)-Leu-Hyp-Nml-Asp-Arg-Ile-NH2] (HELM PEPTIDE1{[CCCCCCCCN1CCC[C@H](C(=O)[*:2])C1].F.[CN(C)C[C@@H](N[*:1])C(=O)[*:2]].L.[Hyp].[meL].D.R.I.[am]}$$$$V2.0) | < 1000 nM | 
CCCCCCCC(=O)N1CCC[C@H](C(=O)N[C@@H](Cc2ccccc2)C(=O)N[C@H](CN(C)C)C(=O)N[C@@H](CC(C)C)C(=O)N2C[C@H](O)C[C@H]2C(=O)N(C)[C@@H](CC(C)C)C(=O)N[C@@H](CC(=O)O)C(=O)N2CCC[C@H]2C(=O)N[C@H](C(N)=O)[C@@H](C)CC)C1 [JAL-1580, Occ-Sni-Phe-dap(Me2)-Leu-Hyp-Nml-Asp-Pro-Ile-NH2] (Octanoyl-[X2]F[dDap(Me2)]L[Hyp][NMeL]DPI-NH2) | < 1000 nM | 
CCCCCCCC(=O)N1CCC[C@H](C(=O)N(C)[C@@H](Cc2ccccc2)C(=O)N[C@H](CN(C)C)C(=O)N[C@@H](CC(C)C)C(=O)N2C[C@H](O)C[C@H]2C(=O)N(C)[C@@H](CC(C)C)C(=O)N[C@@H](CC(=O)O)C(=O)N[C@@H](CCCNC(=N)N)C(=O)N[C@H](C(N)=O)[C@@H](C)CC)C1 [JAL-1579, Occ-Sni-Nmf-dap(Me2)-Leu-Hyp-Nml-Asp-Arg-Ile-NH2] (Octanoyl-[X2][NMeF][dDap(Me2)]L[Hyp][NMeL]DRI-NH2) | < 1000 nM | 
CC[C@H](C)[C@@H]1NC(=O)[C@H](CCCNC(=N)N)NC(=O)[C@H](CC(=O)O)NC(=O)[C@H](CCSC)NC(=O)[C@H](CCCNC(=N)N)NC(=O)CNC(=O)CNC(=O)[C@H](Cc2ccccc2)NC(=O)[C@@H](NC(=O)[C@H](CO)NC(=O)[C@H](CO)NC(=O)[C@H](CCCNC(=N)N)NC(=O)[C@H](CCCNC(=N)N)NC(=O)[C@H](CC(C)C)NC(=O)[C@@H](N)CO)CSSC[C@@H](C(=O)N[C@@H](CC(N)=O)C(=O)N[C@@H](CO)C(=O)N[C@@H](Cc2ccccc2)C(=O)N[C@@H](CCCNC(=N)N)C(=O)N[C@@H](Cc2ccc(O)cc2)C(=O)O)NC(=O)CNC(=O)[C@H](CC(C)C)NC(=O)CNC(=O)[C@H](CO)NC(=O)[C@H](CCC(N)=O)NC(=O)[C@H](C)NC(=O)CNC1=O [ANP, atrial natriuretic peptide] |  | decrease in cell number [2]: up to 97%
